Molecular target: T1, LuxR01 (Shewanella baltica, UniProt A3CYS4)
T1 construct: gene Sbal_0102
T1 sequence (A3CYS4 1-175): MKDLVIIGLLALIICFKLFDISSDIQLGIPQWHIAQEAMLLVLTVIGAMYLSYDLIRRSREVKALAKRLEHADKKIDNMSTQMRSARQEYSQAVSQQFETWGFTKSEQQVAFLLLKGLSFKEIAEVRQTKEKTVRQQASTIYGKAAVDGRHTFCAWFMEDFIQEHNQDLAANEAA
Test: FLAG bead pull-down from ligand mixture, UHPLC-MS/MS
Type: binding
Details: mixture of C4-HSL, C6-HSL, PL, LL and PP, 1 uM, PBS, 4 °C, 1 h; empty-vector control

O=C1N[C@@H](Cc2ccccc2)C(=O)N2CCC[C@@H]12 [PP, cyclo-(L-Pro-L-Phe)]
FLAG bead pull-down from ligand mixture, UHPLC-MS/MS: PP was detected in LuxR01 and LuxR02 protein binding system

Source: PMC6370745, “Positive Regulation of Spoilage Potential and Biofilm Formation in Shewanella baltica OS155 via Quorum Sensing System Composed of DKP and Orphan LuxRs” (Frontiers in Microbiology, 2019)
